Data as given in ChEMBL document CHEMBL1147456, “Binding modes of 6,7 di-substituted 4-anilinoquinoline-3-carbonitriles to EGFR” (Bioorg Med Chem Lett, 2004).

Target: Epidermal growth factor receptor (Homo sapiens, UniProt P00533)
Assay: Concentration required to inhibit autophosphorylation of cytoplasmic domain of epidermal growth factor receptor (EGFR)

Epidermal growth factor receptor, sequence (P00533 whole entry, the tested form may be a part): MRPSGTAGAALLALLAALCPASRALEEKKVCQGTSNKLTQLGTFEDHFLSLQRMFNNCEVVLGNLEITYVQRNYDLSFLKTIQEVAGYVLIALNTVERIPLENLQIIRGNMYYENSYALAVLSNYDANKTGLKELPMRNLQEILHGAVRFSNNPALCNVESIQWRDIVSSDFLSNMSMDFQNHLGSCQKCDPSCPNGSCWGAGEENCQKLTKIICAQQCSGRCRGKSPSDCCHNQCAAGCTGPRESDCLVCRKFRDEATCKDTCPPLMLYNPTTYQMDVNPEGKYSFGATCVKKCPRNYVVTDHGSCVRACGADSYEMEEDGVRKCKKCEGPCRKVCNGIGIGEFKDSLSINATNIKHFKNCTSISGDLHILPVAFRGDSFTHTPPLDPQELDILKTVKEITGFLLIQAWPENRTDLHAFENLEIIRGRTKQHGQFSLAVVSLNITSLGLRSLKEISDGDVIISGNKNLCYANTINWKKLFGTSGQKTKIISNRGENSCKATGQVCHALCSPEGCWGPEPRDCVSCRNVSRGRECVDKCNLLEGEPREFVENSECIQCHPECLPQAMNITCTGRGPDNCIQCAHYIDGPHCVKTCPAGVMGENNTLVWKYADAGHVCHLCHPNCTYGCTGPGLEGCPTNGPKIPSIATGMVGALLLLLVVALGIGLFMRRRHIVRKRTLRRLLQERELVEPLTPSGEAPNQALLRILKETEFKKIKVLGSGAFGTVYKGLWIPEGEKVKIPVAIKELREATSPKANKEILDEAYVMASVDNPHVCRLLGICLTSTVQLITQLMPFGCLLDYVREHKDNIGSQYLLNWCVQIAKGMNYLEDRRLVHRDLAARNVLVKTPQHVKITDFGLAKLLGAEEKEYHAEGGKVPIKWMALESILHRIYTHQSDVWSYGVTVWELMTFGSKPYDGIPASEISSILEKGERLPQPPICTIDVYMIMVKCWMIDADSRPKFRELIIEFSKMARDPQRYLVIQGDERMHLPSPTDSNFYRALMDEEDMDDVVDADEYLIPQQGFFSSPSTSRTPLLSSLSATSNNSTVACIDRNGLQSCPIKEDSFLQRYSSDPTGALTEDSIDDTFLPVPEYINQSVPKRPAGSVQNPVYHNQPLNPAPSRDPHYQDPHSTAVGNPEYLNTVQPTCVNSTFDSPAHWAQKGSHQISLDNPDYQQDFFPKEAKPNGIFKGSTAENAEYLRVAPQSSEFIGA

- IC50: 0.15 µM
Compound: COC[C@@H]1CCCN1CC#CC(=O)Nc1ccc2ncc(C#N)c(Nc3cccc(Br)c3)c2c1
